≈ marks a conversion by molar mass, not a printed value.
test system: host cells carrying PAmpC0-307 (AmpC L290 to R); test: MIC test, single-mutation plasmid PAmpC0-307; type: cell-based, E. coli; conditions: PAmpC0-307; T869 to G; L290 to R
Procedure: (§1) Basically, a MIC determination is carried out by preparing serial dilutions of drugs in a micro-well plate and measuring host cell growth within those wells. The MIC for a particular set of host cells containing a mutant resistance gene is determined by examining the wells to locate the lowest concentration of drug which inhibited cell growth. This is capable of discriminating generally between those host cells containing mutant resistance genes conferring different degrees of resistance against the particular drug.
(§2) Serial dilutions were prepared by first determining the volume of drug solution to be added to the first well in each row to achieve the desired concentration of drug in a total volume of 1 ml. The MIC was determined for the following drugs: ampicillin, pipericillin, temocillin, cephalothin, cefuroxime, cefotaxime, ceftazidime, cefepime, imipenem, meropenem, and aztreonam. To the first well in each row 1 ml of the diluted cell suspension was added, and to all remaining wells per row 0.5 ml of the diluted cell suspension was added. For each row, the predetermined volume of a drug solution was added to the first well per row, mixed well, and then 0.5 ml of the mixed solution was transferred to the next well, and so on until the serial dilutions were completed. From the last well in each row, 0.5 ml was removed so that all well contained 0.5 ml of the drug-containing culture. Plates were sealed with BreatheEasy film (Diversified Biotech, Boston, Mass.) and maintained overnight at 37° C. with shaking. […] The MICs, in μg/ml, for each of the above-identified drugs was as follows: ampicillin, >1024; pipericillin, >1024; temocillin, 32: cephalothin, 1024; cefuroxime, 512; cefotaxime, 8; ceftazidime, 64; cefepime, 1; imipenem, 0.25; meropenem, 0.03125; and aztreonam, 16.
(§3) To determine the phenotypic effects of each of the amino acid substitutions, the A907C, A587G, A663G, T869G, and A884G mutations are being individually introduced into pAmpC0 by site-directed mutagenesis. It is expected that the A907C mutation will result in MICs that are identical to pAmpC13A. The A587G, A663G, and As84G mutations will also be introduced individually into AmpC13 to determine whether the combination of any of those mutations with A907C will result in increased resistance levels.
(§4) MICs of three of the plasmids containing the wildtype AmpC gene into which the above mutations have been introduced have been determined, as shown in Table 2 below.

SMILES | MIC [µg/mL]
CC1(C)S[C@@H]2[C@H](NC(=O)[C@H](N)c3ccccc3)C(=O)N2[C@H]1C(=O)O [Ampicillin, ampicillin] | 128
CO/N=C(\C(=O)N[C@@H]1C(=O)N2C(C(=O)O)=C(COC(C)=O)CS[C@H]12)c1csc(N)n1 [Cefotaxime, cefotaxime] | 0.5
CO/N=C(\C(=O)N[C@@H]1C(=O)N2C(C(=O)O)=C(COC(N)=O)CS[C@H]12)c1ccco1 [Cefuroxime, cefuroxime] | 32
C[C@@H](O)[C@H]1C(=O)N2C(C(=O)O)=C(SCCN=CN)C[C@H]12 [Imipenem, imipenem] | 0.125
CC(=O)OCC1=C(C(=O)O)N2C(=O)[C@@H](NC(=O)Cc3cccs3)[C@H]2SC1 [Cephalothin, cephalothin] | 512
CO[C@@]1(NC(=O)C(C(=O)O)c2ccsc2)C(=O)N2[C@@H](C(=O)O)C(C)(C)S[C@@H]21 (stereo partly drawn) [Temocillin, temocillin] | 8

test system: E. coli DH5α-E containing multiply mutated ampC; test: MIC of population of E. coli host cells containing multiply mutated (DNA-shuffled) ampC; type: cell-based; conditions: Escherichia coli; lowest drug concentration that completely inhibited growth; overnight at 37° C., MH-I broth, 48-well plates, shuffled ampC library in DH5α-E
Procedure: E. coli host cells prepared according to Example 4 were diluted into 100 ml MuellerHinton-IPTG (MH-T) broth. Duplicate samples of 10^0, 10^1, and 10^2 dilutions were spread onto L(tet) plates to estimate total transformants, and duplicate 10^0 and 10^1 samples were spread onto MH-I(ampicillin) plates to estimate the number of Amp^R transformants. 10 mg ampicillin was added to each culture using 1 ml of a 10 mg/ml ampicillin solution. The culture was allowed to stand overnight at 37° C. without shaking.
Next, the minimum inhibitory concentration of a number of drug was determined. An estimate of viable cells was calculated by assuming that an A600 of 1.0 is equivalent to 1.9×10^8 per ml for DH5α-E cells. A sample of the overnight culture was diluted into 70 ml of MH-I so that the number of cells per ml 10^5 per ml. The resulting suspension was used to determine MIC in 48-well microtiter plates.
as §2

SMILES | MIC [µg/mL]
CC1(C)S[C@@H]2[C@H](NC(=O)[C@H](N)c3ccccc3)C(=O)N2[C@H]1C(=O)O [Ampicillin, ampicillin] | > 1020
CO/N=C(\C(=O)N[C@@H]1C(=O)N2C(C(=O)O)=C(COC(C)=O)CS[C@H]12)c1csc(N)n1 [Cefotaxime, cefotaxime] | 8
CO/N=C(\C(=O)N[C@@H]1C(=O)N2C(C(=O)O)=C(COC(N)=O)CS[C@H]12)c1ccco1 [Cefuroxime, cefuroxime] | 512
C[C@@H](O)[C@H]1C(=O)N2C(C(=O)O)=C(SCCN=CN)C[C@H]12 [Imipenem, imipenem] | 0.25
CC(=O)OCC1=C(C(=O)O)N2C(=O)[C@@H](NC(=O)Cc3cccs3)[C@H]2SC1 [Cephalothin, cephalothin] | 1020
CO[C@@]1(NC(=O)C(C(=O)O)c2ccsc2)C(=O)N2[C@@H](C(=O)O)C(C)(C)S[C@@H]21 (stereo partly drawn) [Temocillin, temocillin] | 32

test system: host cells carrying pAmpC0-305 (AmpC T121 to S); test: MIC test, single-mutation plasmid pAmpC0-305; type: cell-based, E. coli; conditions: pAmpC0-305; A663 to G; T121 to S
Procedure: as §1, §2, §3, §4

SMILES | MIC [µg/mL]
CC1(C)S[C@@H]2[C@H](NC(=O)[C@H](N)c3ccccc3)C(=O)N2[C@H]1C(=O)O [Ampicillin, ampicillin] | 128
CO/N=C(\C(=O)N[C@@H]1C(=O)N2C(C(=O)O)=C(COC(C)=O)CS[C@H]12)c1csc(N)n1 [Cefotaxime, cefotaxime] | 1
CO/N=C(\C(=O)N[C@@H]1C(=O)N2C(C(=O)O)=C(COC(N)=O)CS[C@H]12)c1ccco1 [Cefuroxime, cefuroxime] | 32
C[C@@H](O)[C@H]1C(=O)N2C(C(=O)O)=C(SCCN=CN)C[C@H]12 [Imipenem, imipenem] | 0.125
CC(=O)OCC1=C(C(=O)O)N2C(=O)[C@@H](NC(=O)Cc3cccs3)[C@H]2SC1 [Cephalothin, cephalothin] | 512
CO[C@@]1(NC(=O)C(C(=O)O)c2ccsc2)C(=O)N2[C@@H](C(=O)O)C(C)(C)S[C@@H]21 (stereo partly drawn) [Temocillin, temocillin] | 16

test system: E. coli JM109 carrying pAmpC0 (wildtype E. coli K12 ampC gene); test: MIC test, plasmid pAmpC0 (wildtype ampC gene); type: cell-based; conditions: pAmpC0 (wildtype ampC)
Procedure: as §1
All experiments utilizing ampicillin resistance will be directed toward the cloned and regulated ampC gene (or mutant ampC gene) in such a way that the regulation, i.e., the amount of enzyme produced per cell, will be held constant throughout the experiments and all of the “improvement” in resistance will come from improvement in β-lactamase activity.
as §2, with “16. […]” for “16.”

SMILES | MIC [µg/mL]
CC1(C)S[C@@H]2[C@H](NC(=O)[C@H](N)c3ccccc3)C(=O)N2[C@H]1C(=O)O [Ampicillin, ampicillin] | 128 (≈ 366 µM)
CO/N=C(\C(=O)N[C@@H]1C(=O)N2C(C(=O)O)=C(COC(C)=O)CS[C@H]12)c1csc(N)n1 [Cefotaxime, cefotaxime] | 1 (≈ 2.2 µM)
CO/N=C(\C(=O)N[C@@H]1C(=O)N2C(C(=O)O)=C(COC(N)=O)CS[C@H]12)c1ccco1 [Cefuroxime, cefuroxime] | 64 (≈ 151 µM)
C[C@@H](O)[C@H]1C(=O)N2C(C(=O)O)=C(SCCN=CN)C[C@H]12 [Imipenem, imipenem] | 0.25 (≈ 0.835 µM)
CC(=O)OCC1=C(C(=O)O)N2C(=O)[C@@H](NC(=O)Cc3cccs3)[C@H]2SC1 [Cephalothin, cephalothin] | 1020 (≈ 2580 µM)
CO[C@@]1(NC(=O)C(C(=O)O)c2ccsc2)C(=O)N2[C@@H](C(=O)O)C(C)(C)S[C@@H]21 (stereo partly drawn) [Temocillin, temocillin] | 16 (≈ 38.6 µM)

same assay, conditions: wildtype ampC gene; Table 1 boxed cells

SMILES | resistance conferred by plasmid pAmpC0
CC1(C)S[C@@H]2[C@H](NC(=O)[C@H](N)c3ccccc3)C(=O)N2[C@H]1C(=O)O [Ampicillin, ampicillin] | confers resistance
CO/N=C(\C(=O)N[C@@H]1C(=O)N2C(C(=O)O)=C(COC(C)=O)CS[C@H]12)c1csc(N)n1 [Cefotaxime, cefotaxime] | not
CO/N=C(\C(=O)N[C@@H]1C(=O)N2C(C(=O)O)=C(COC(N)=O)CS[C@H]12)c1ccco1 [Cefuroxime, cefuroxime] | confers resistance
CC(=O)OCC1=C(C(=O)O)N2C(=O)[C@@H](NC(=O)Cc3cccs3)[C@H]2SC1 [Cephalothin, cephalothin] | confers resistance
CO[C@@]1(NC(=O)C(C(=O)O)c2ccsc2)C(=O)N2[C@@H](C(=O)O)C(C)(C)S[C@@H]21 (stereo partly drawn) [Temocillin, temocillin] | not

test system: E. coli carrying pAmpC21B (mutant ampC); test: MIC test, mutant plasmid pAmpC21B; type: cell-based; conditions: after two cycles of mutagenesis and selection
Procedure: (§5) Serial dilutions were prepared by first determining the volume of drug solution to be added to the first well in each row to achieve the desired concentration of drug in a total volume of 1 ml. The MIC was determined for the following drugs: ampicillin, pipericillin, temocillin, cephalothin, cefuroxime, cefotaxime, ceftazidime, cefepime, imipenem, meropenem, and aztreonam. To the first well in each row 1 ml of the diluted cell suspension was added, and to all remaining wells per row 0.5 ml of the diluted cell suspension was added. For each row, the predetermined volume of a drug solution was added to the first well per row, mixed well, and then 0.5 ml of the mixed solution was transferred to the next well, and so on until the serial dilutions were completed. From the last well in each row, 0.5 ml was removed so that all well contained 0.5 ml of the drug-containing culture. Plates were sealed with BreatheEasy film (Diversified Biotech, Boston, Mass.) and maintained overnight at 37° C. with shaking.
(§6) Plasmids were prepared from those isolates and were transformed into E. coli strain JM109.

SMILES | clinical resistance conferred by pAmpC21B
CC1(C)S[C@@H]2[C@H](NC(=O)[C@H](N)c3ccccc3)C(=O)N2[C@H]1C(=O)O [Ampicillin, ampicillin] | clinical resistance
CO/N=C(\C(=O)N[C@@H]1C(=O)N2C(C(=O)O)=C(COC(N)=O)CS[C@H]12)c1ccco1 [Cefuroxime, cefuroxime] | clinical resistance
CC(=O)OCC1=C(C(=O)O)N2C(=O)[C@@H](NC(=O)Cc3cccs3)[C@H]2SC1 [Cephalothin, cephalothin] | clinical resistance

test system: host cells carrying PAmpC0-308 (AmpC N295 to S); test: MIC test, single-mutation plasmid PAmpC0-308; type: cell-based, E. coli; conditions: A644 to G

SMILES | MIC [µg/mL]
CC1(C)S[C@@H]2[C@H](NC(=O)[C@H](N)c3ccccc3)C(=O)N2[C@H]1C(=O)O [Ampicillin, ampicillin] | 64 (≈ 183 µM)
CO/N=C(\C(=O)N[C@@H]1C(=O)N2C(C(=O)O)=C(COC(C)=O)CS[C@H]12)c1csc(N)n1 [Cefotaxime, cefotaxime] | 0.5 (≈ 1.1 µM)
CO/N=C(\C(=O)N[C@@H]1C(=O)N2C(C(=O)O)=C(COC(N)=O)CS[C@H]12)c1ccco1 [Cefuroxime, cefuroxime] | 32 (≈ 75.4 µM)
C[C@@H](O)[C@H]1C(=O)N2C(C(=O)O)=C(SCCN=CN)C[C@H]12 [Imipenem, imipenem] | 0.125 (≈ 0.418 µM)
CC(=O)OCC1=C(C(=O)O)N2C(=O)[C@@H](NC(=O)Cc3cccs3)[C@H]2SC1 [Cephalothin, cephalothin] | 512 (≈ 1290 µM)
CO[C@@]1(NC(=O)C(C(=O)O)c2ccsc2)C(=O)N2[C@@H](C(=O)O)C(C)(C)S[C@@H]21 (stereo partly drawn) [Temocillin, temocillin] | 8 (≈ 19.3 µM)

test system: E. coli JM109 carrying the plasmid vector pACSE without an ampC gene; test: MIC test, plasmid vector pACSE without an ampC gene; type: cell-based; conditions: pACSE (vector, no ampC)
Procedure: as §1, §2
Plasmids were prepared from those isolates and were transformed into E. coli strain JM109. MICs conferred by each of those plasmids was determined as in Example 5.
as §4

SMILES | MIC [µg/mL]
CC1(C)S[C@@H]2[C@H](NC(=O)[C@H](N)c3ccccc3)C(=O)N2[C@H]1C(=O)O [Ampicillin, ampicillin] | 2 (≈ 5.72 µM)
CO/N=C(\C(=O)N[C@@H]1C(=O)N2C(C(=O)O)=C(COC(C)=O)CS[C@H]12)c1csc(N)n1 [Cefotaxime, cefotaxime] | 0.0625 (≈ 0.137 µM)
CO/N=C(\C(=O)N[C@@H]1C(=O)N2C(C(=O)O)=C(COC(N)=O)CS[C@H]12)c1ccco1 [Cefuroxime, cefuroxime] | 16 (≈ 37.7 µM)
C[C@@H](O)[C@H]1C(=O)N2C(C(=O)O)=C(SCCN=CN)C[C@H]12 [Imipenem, imipenem] | 0.25 (≈ 0.835 µM)
CC(=O)OCC1=C(C(=O)O)N2C(=O)[C@@H](NC(=O)Cc3cccs3)[C@H]2SC1 [Cephalothin, cephalothin] | 16 (≈ 40.4 µM)
CO[C@@]1(NC(=O)C(C(=O)O)c2ccsc2)C(=O)N2[C@@H](C(=O)O)C(C)(C)S[C@@H]21 (stereo partly drawn) [Temocillin, temocillin] | 16 (≈ 38.6 µM)

test system: E. coli carrying pAmpC13A (mutant ampC, S303R); test: MIC test, mutant plasmid pAmpC13A; type: cell-based; conditions: not given
Procedure: as §5, §6

SMILES | clinical resistance conferred by pAmpC13A | improved resistance conferred by pAmpC13A
CC1(C)S[C@@H]2[C@H](NC(=O)[C@H](N)c3ccccc3)C(=O)N2[C@H]1C(=O)O [Ampicillin, ampicillin] | clinical resistance | improved resistance
CO/N=C(\C(=O)N[C@@H]1C(=O)N2C(C(=O)O)=C(COC(C)=O)CS[C@H]12)c1csc(N)n1 [Cefotaxime, cefotaxime] | – | improved resistance
CO/N=C(\C(=O)N[C@@H]1C(=O)N2C(C(=O)O)=C(COC(N)=O)CS[C@H]12)c1ccco1 [Cefuroxime, cefuroxime] | clinical resistance | –
CC(=O)OCC1=C(C(=O)O)N2C(=O)[C@@H](NC(=O)Cc3cccs3)[C@H]2SC1 [Cephalothin, cephalothin] | clinical resistance | –
CO[C@@]1(NC(=O)C(C(=O)O)c2ccsc2)C(=O)N2[C@@H](C(=O)O)C(C)(C)S[C@@H]21 (stereo partly drawn) [Temocillin, temocillin] | clinical resistance | improved resistance

Reference: patent publication US6720142B1, “Method of determining evolutionary potential of mutant resistance genes and use thereof to screen for drug efficacy” (priority 1999, dated 2004)
